These results are taken from patent US20260365670A1, “EGFR INHIBITORS AND USES THEREOF” (DIZAL (JIANGSU) PHARMACEUTICAL CO., LTD., priority 2022, published 2026).

Where two headings read alike, the source gives them in different places.

The subject of experiment [1] is Ba/F3 cells expressing EGFR mutations. Put plainly: Cell proliferation assay, Ba/F3 cells expressing EGFR mutations (CellTiter-Glo, 72 hours). The format is cell-based. Particulars: CellTiter-Glo. Here is the method:
(§1) Biological Example 2: Cell Proliferation Assays
(§2) Ba/F3 cells expressing EGFR mutations were seeded in 384-well plates at 5000 cells/well in RPMI1640 medium containing […]. PC-9 at 500 cells/well was seeded into 384-well plates in RPMI1640 medium with 10% FBS. After overnight incubation, the assay plates were dosed with compounds at a series of concentrations. Alongside dosing the assay plates, the day 0 plate was processed using CellTiter-Glo® Luminescent Cell Viability Assay (Promega) to measure the number of viable cells (G0). The assay plates were further incubated for 72 hours and the number of viable cells (G3) was measured. The percentage of proliferation was calculated as: […]=100×(G3 value of sample well−G0 value)/(G3 value of DMSO control−G0 value). The concentration of compound producing 50% proliferation inhibition (GI50) was further calculated in best-fit curves using XLFit software. N/A=not available.

For the next experiment, the system named is PC-9. The experiment can be described thus: Cell proliferation assay, PC-9 cells (CellTiter-Glo, 72 hours). The format is cell-based. The note with it: PC9 cells, CellTiter-Glo, read-out: PC9 GI50. Here is the method: as §1, §2
A general note: Cellular ATP, detected with luciferase, serves as a proxy for viable cell number.

Where [2] appears, read: BaF3 cells, EGFR DEL19-C797S, read-out: DEL19-C797S/BaF3 GI50.
The mark [3] stands for this setting: BaF3 cells, EGFR DEL19-T790-C797S, read-out: DEL19-T790-C797S/BaF3 GI50.
[4] abbreviates: BaF3 cells, EGFR L858R, read-out: L858R/BaF3 GI50.
The mark [5] stands for this setting: BaF3 cells, EGFR L858R-C797S, read-out: L858R-C797S/BaF3 GI50.
Setting [6] is: BaF3 cells, EGFR L858R-T790-C797S, read-out: L858R-T790-C797S/BaF3 GI50.
The mark [7] stands for this setting: BaF3 cells, EGFR L858R-T790M, read-out: L858R-T790M/BaF3 GI50.
Setting [8] is: EGFR DEL19-T790M, read-out: DEL19-T790M GI50.

Turning to `CN(C)[C@H]1CCN(c2ccc3nc4n(c3c2)C23CCC(CN(CCOc5c(cnn5C)-c5cc(cn(C)c5=O)C(=O)N4)C2)C3)C1` (single isomer, unassigned) [Example A66A], the GI50 in experiment [1] (setting [2]) stood at 0.177 µM; in experiment [1] (setting [3]), 0.466 µM; in experiment [1] (setting [4]), 1.14 µM; in experiment [1] (setting [5]) it was 0.709 µM; in experiment [1] (setting [6]), 0.6 µM; in experiment [1] (setting [7]), 2.13 µM. Also, the values for the GI50 (in experiment [1] (setting [8]); in the experiment on PC-9) were 0.622 µM and 0.705 µM, respectively.

For the compound `CN(C)[C@@H]1CCN(c2ccc3nc4n(c3c2)C23CCC(CN(CCOc5c(cnn5C)-c5cc(cn(C)c5=O)C(=O)N4)C2)C3)C1` (single isomer, unassigned) [Example A66C], the GI50 was 0.156 µM in experiment [1] (setting [2]); 0.548 µM in experiment [1] (setting [3]); 1.58 µM in experiment [1] (setting [4]); 0.688 µM in experiment [1] (setting [5]); 0.549 µM in experiment [1] (setting [6]); 1.52 µM in experiment [1] (setting [7]). In addition, the GI50 in experiment [1] (setting [8]) came out at 0.723 µM; in the experiment on PC-9, 0.703 µM.

With `CN(C)CC1(F)CN(c2ccc3nc4n(c3c2)C23CCC(CN(CCOc5c(cnn5C)-c5cc(cn(C)c5=O)C(=O)N4)C2)C3)C1` (single isomer, unassigned) [Example A72A], the GI50 stood at 0.351 µM in experiment [1] (setting [2]); 1.05 µM in experiment [1] (setting [3]); 0.866 µM in experiment [1] (setting [4]); 0.632 µM in experiment [1] (setting [5]); 1.82 µM in experiment [1] (setting [6]); 2.77 µM in experiment [1] (setting [7]). For the same compound, the GI50 was 1.23 µM in experiment [1] (setting [8]) and 1.06 µM with PC-9.

`CN1CC2(CCN(c3ccc4nc5n(c4c3)C34CCC(CN(CCOc6c(cnn6C)-c6cc(cn(C)c6=O)C(=O)N5)C3)C4)C2)C1` (single isomer, unassigned) [Example A73A]: the GI50 in experiment [1] (setting [2]) is 0.094 µM; in experiment [1] (setting [3]), 0.302 µM; in experiment [1] (setting [4]), 0.55 µM; in experiment [1] (setting [5]), 0.357 µM; in experiment [1] (setting [6]), 0.184 µM; in experiment [1] (setting [7]) it was 1.1 µM. The GI50 in experiment [1] (setting [8]) was determined as 0.19 µM; in the experiment on PC-9, 0.515 µM.

As for `CN1CCN(C2CCN(c3ccc4nc5n(c4c3)C34CCC(CN(CCOc6c(cnn6C)-c6cc(cn(C)c6=O)C(=O)N5)C3)C4)C2)CC1` (single isomer, unassigned) [Example A80A, 15,21-Dimethyl-5-[3-(4-methylpiperazin-1-yl)pyrrolidin-1-yl]-23-oxa-2,9,11,15,20,21,26-heptaazaheptacyclo[24.4.1.1^{1,28}.1^{13,17}.0^{2,10}.0^{3,8}.0^{18,22}]tritriaconta-3,5,7,9,13,17(33),18(22),19-octaene-12,16-dione], the GI50 stood at 0.135 µM in experiment [1] (setting [2]); 0.587 µM in experiment [1] (setting [3]); 0.312 µM in experiment [1] (setting [4]); 0.193 µM in experiment [1] (setting [5]); 0.523 µM in experiment [1] (setting [6]); 0.45 µM in experiment [1] (setting [7]). Besides, the GI50 in experiment [1] (setting [8]) worked out at 0.477 µM; in the experiment on PC-9, 0.295 µM.

`CN1CCN(C2CCN(c3ccc4nc5n(c4c3)C34CCC(CN(CCOc6c(cnn6C)-c6cc(cn(C)c6=O)C(=O)N5)C3)C4)C2)CC1` (single isomer, unassigned) [Example A80B2, 15,21-Dimethyl-5-[3-(4-methylpiperazin-1-yl)pyrrolidin-1-yl]-23-oxa-2,9,11,15,20,21,26-heptaazaheptacyclo[24.4.1.1^{1,28}.1^{13,17}.0^{2,10}.0^{3,8}.0^{18,22}]tritriaconta-3,5,7,9,13,17(33),18(22),19-octaene-12,16-dione]: the GI50 came to 0.0005 µM in experiment [1] (setting [2]); 0.0007 µM in experiment [1] (setting [3]); 0.00063 µM in experiment [1] (setting [4]); 0.0005 µM in experiment [1] (setting [5]); 0.00073 µM in experiment [1] (setting [6]); 0.00067 µM in experiment [1] (setting [7]). Further, the GI50 was found to be 0.0007 µM in experiment [1] (setting [8]) and 0.0036 µM in the experiment with PC-9.

For the compound `C[C@@H]1CCCOc2c(cnn2C)-c2cc(cn(C3CC3)c2=O)C(=O)Nc2nc3ccc(N4CCN(C)CC4)cc3n2C1` [Example A15, (11R)-26-cyclopropyl-5,11-dimethyl-16-(4-methylpiperazin-1-yl)-7-oxa-4,5,13,20,22,26-hexaazapentacyclo[22.3.1.0^{2,6}.0^{13,21}.0^{14,19}]octacosa-1(28),2(6),3,14,16,18,20,24-octaene-23,27-dione], the GI50 amounted to 0.495 µM in experiment [1] (Mus musculus, BaF3, 72 h, BaF3 cells, EGFR DEL19-C797S, read-out: DEL19-C797S/BaF3 GI50); 2.1 µM in experiment [1] (Mus musculus, BaF3, 72 h, BaF3 cells, EGFR DEL19-T790-C797S, read-out: DEL19-T790-C797S/BaF3 GI50); 1.39 µM in experiment [1] (Mus musculus, BaF3, 72 h, BaF3 cells, EGFR L858R, read-out: L858R/BaF3 GI50); 1.57 µM in experiment [1] (Mus musculus, BaF3, 72 h, BaF3 cells, EGFR L858R-C797S, read-out: L858R-C797S/BaF3 GI50); 4.91 µM in experiment [1] (Mus musculus, BaF3, 72 h, BaF3 cells, EGFR L858R-T790-C797S, read-out: L858R-T790-C797S/BaF3 GI50); 1.55 µM in experiment [1] (Mus musculus, BaF3, 72 h, BaF3 cells, EGFR L858R-T790M, read-out: L858R-T790M/BaF3 GI50). The GI50 was found to be 2.62 µM in experiment [1] (Mus musculus, BaF3, 72 h, EGFR DEL19-T790M, read-out: DEL19-T790M GI50) and 2.07 µM in the experiment on PC-9 (Homo sapiens, PC-9, 72 h).
